Earlier results, collected in patent US20070148689A1, “Compositions and methods for the prevention, treatment and detection of tuberculosis and other diseases” (priority 2000, published 2007).

Assays:
CO(L)-deficient CODH = CO(L)-deficient CODH (Rhodospirillum rubrum, UniProt P31896)
[1] = chelator by intraperitoneal injection shortly after oral or intraperitoneal administration of nickel
CODH = CODH (Neomoorella thermoacetica, UniProt P27988)
[2] = 10% DTPA in an oil-in-water emulsion

Chain of CODH (P27989 whole entry): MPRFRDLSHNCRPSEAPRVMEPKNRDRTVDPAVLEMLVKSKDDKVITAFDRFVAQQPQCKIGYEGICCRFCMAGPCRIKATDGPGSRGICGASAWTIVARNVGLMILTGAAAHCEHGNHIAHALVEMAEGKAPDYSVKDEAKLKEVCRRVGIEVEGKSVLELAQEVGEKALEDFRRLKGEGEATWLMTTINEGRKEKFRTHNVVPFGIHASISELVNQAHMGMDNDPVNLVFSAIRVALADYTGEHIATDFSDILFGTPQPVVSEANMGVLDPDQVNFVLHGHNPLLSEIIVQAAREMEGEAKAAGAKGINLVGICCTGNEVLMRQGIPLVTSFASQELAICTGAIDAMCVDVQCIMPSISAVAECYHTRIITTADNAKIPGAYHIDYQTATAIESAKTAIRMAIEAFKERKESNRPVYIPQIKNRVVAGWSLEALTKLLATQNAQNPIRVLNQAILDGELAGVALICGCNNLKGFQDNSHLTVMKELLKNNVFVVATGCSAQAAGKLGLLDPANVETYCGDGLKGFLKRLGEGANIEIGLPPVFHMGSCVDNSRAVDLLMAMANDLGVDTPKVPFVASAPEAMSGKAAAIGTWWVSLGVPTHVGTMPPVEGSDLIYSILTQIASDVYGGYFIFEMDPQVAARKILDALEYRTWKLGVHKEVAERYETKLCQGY
Chain of CODH (P27988 whole entry): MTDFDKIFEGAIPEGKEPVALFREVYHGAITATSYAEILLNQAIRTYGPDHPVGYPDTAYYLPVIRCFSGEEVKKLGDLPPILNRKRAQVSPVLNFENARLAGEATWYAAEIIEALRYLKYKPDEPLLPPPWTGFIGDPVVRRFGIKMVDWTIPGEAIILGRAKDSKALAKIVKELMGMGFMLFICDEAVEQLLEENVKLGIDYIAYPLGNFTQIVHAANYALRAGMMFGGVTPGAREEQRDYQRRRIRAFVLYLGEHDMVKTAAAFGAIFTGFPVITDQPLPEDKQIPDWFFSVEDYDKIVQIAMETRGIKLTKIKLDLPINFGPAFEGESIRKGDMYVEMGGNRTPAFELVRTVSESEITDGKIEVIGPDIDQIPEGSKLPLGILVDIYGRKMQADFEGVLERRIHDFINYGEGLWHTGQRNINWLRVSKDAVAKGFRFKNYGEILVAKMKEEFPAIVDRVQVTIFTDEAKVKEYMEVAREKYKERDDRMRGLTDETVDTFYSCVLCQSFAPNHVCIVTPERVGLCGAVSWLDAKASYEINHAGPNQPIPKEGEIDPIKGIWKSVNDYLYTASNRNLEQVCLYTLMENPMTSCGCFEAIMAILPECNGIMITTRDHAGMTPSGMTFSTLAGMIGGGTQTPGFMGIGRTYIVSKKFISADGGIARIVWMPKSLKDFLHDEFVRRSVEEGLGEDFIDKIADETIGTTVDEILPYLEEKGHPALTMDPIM
Chain of CO(L)-deficient CODH (P31896 whole entry): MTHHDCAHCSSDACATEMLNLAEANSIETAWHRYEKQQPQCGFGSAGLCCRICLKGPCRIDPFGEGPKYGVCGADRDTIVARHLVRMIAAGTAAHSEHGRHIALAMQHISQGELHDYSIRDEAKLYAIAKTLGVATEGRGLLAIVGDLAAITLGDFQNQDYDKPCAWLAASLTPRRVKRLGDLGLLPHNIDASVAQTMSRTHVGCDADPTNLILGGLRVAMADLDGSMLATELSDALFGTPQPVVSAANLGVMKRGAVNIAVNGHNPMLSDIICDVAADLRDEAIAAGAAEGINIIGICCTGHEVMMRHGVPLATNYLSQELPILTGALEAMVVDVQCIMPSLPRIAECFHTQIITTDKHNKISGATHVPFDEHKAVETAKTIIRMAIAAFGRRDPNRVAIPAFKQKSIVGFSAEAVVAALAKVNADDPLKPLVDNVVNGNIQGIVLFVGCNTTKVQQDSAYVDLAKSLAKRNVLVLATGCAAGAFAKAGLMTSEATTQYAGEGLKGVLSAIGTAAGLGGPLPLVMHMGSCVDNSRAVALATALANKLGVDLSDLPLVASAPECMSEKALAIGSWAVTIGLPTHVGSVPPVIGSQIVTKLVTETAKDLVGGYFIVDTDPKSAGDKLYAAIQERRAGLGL

CC(=NO)C(C)=NO [dimethylglyoxime]
Removal of Ni from CO(L)-deficient CODH by treatment (CO(L)-deficient CODH): can be removed

CCN(CC)C(=S)SSC(=S)N(CC)CC [TTD, Tetraethylthiuram disulphide]
Whole-body retention of nickel [1]: increased

c1cnc2c(c1)ccc1cccnc12 [1,10phenanthroline]
Removal of the Ni ion in the A-cluster of CODH (CODH): selectively removed | Synthesis of acetyl-coenzyme A by CODH without this Ni (CODH; after Ni removal by the chelator): can't catalyze

O=C(O)[C@@H](S)[C@@H](S)C(=O)O [DMSA, Meso-2,3-dimercaptosuccinic acid]
Water solubility: water-soluble | Toxicity (orally-administered metal chelator): non-toxic

O=C(O)CN(CCN(CC(=O)O)CC(=O)O)CCN(CC(=O)O)CC(=O)O [DTPA, diethylenetriaminepentaacetic acid]
Preventive effect in nickel-sensitized patients [2]: preventive effect

CCN(CC)C(=S)[S-].[Na+] [DDC, Sodium diethyldithiocarbamate]
Whole-body retention of nickel [1]: increased
